Laboratory results taken from patent US20140221340A1 (KYOWA HAKKO KIRIN CO., LTD., priority 2011, published 2014).

Target: T1, human CCR10 (Homo sapiens, UniProt P46092)
T1 construct: expressed in transfected cells; host or cells: KJMGER8 cell (cell line derived from Namalwa cell); expression induced with 10 nmol/L β-estradiol
T1 sequence (P46092 1-362): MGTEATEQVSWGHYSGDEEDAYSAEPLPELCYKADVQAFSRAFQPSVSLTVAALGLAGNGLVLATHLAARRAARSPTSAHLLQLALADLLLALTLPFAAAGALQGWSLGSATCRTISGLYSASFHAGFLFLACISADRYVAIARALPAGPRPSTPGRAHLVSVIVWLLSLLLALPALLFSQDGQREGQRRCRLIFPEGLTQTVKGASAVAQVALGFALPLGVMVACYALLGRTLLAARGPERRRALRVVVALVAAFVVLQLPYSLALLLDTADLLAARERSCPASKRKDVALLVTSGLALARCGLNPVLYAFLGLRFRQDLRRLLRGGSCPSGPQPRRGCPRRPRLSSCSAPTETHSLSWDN
Assay: Calcium assay of human CCR10 (inhibition of CTACK-induced increase in intracellular calcium ion concentration in hCCR10G16 cells)
Format: cell-based
Conditions: test compound 100 nmol/L; human recombinant CTACK; hCCR10G16 cells (KJMGER8/Namalwa-derived, Gα16 co-expressed); FLIPR or FDSS; read-out: Inhibitory rate (%) for an increase in calcium ion concentration
Description: A CCR10-inducible expression plasmid was produced according to a known method (“Analytical Biochemistry”, 2006, vol. 400, page 163). A DNA encoding human CCR10 was obtained by PCR. Using human chromosomal DNA (100 ng; manufactured by Clontech Laboratories, Inc.) as a template, a synthetic DNA having the sequences shown by SEQ ID NOs: 1 and 2 as a human CCR10 cDNA specific primer, and Pyrobest DNA Polymerase (manufactured by TAKARA SHUZO CO. LTD.) as an enzyme, a DNA encoding human CCR10 was obtained by PCR. As a buffer solution for PCR, the buffer solution attached to the enzyme was diluted 10-fold with deionized water and used. Using Thermal Cycler DNA Engine (manufactured by MJ Research), PCR was performed by 35 cycles of reactions composed of an incubation at 90° C. for 2 min, at 94° C. for 30 seconds, at an anneal temperature of 58° C. for 30 seconds, and at 72° C. for 1 min.
The amplified PCR fragment was cleaved with HindIII and NotI, then a human CCR10 DNA fragment was recovered by an agarose gel electrophoresis method. The fragment was incorporated in between the corresponding restriction enzyme sites (HindIII-NotI) of an inducible expression vector, whereby a human CCR10-inducible expression plasmid were prepared.
Using a primer specific to the sequence of the plasmid (synthetic DNA having the sequences shown by SEQ ID NOs: 3 and 4), the sequence of human CCR10 DNA region was determined. For the determination of the base sequence, DNA sequencer 377 (manufactured by PerkinElmer) and a reaction kit (ABI Prism (registered trade mark) BigDye (registered trade mark) Terminator Cycle Sequencing Ready Reaction kit: manufactured by Applied Biosystems) were used. The sequence of human CCR10 DNA matched with the sequence (NM_016602) registered in GenBank.
Cells for the detection of the signal from human CCR10 by a calcium assay were prepared. Human CCR10-inducible expressing cells whose host cell is KJMGER8 cell (cell line derived from Namalwa cell) were prepared according to a known method (“Analy Biochem”, 2006, vol. 400, page 163). Human CCR10-inducible expression plasmid produced above and Gα16 expression plasmid were co-transfected into KJMGER8 cell by an electroporation method (“Cytotechnology”, 1990, vol. 3, page 133), whereby a signal from human CCR10 could be detected by a calcium assay (hereinafter to be referred to as hCCR10G16 cell). Gα16 expression plasmid was produced by incorporating human Gα16 DNA into expression vector pAMoh (WO03/087366). Induced expression of human CCR10 was performed by cultivating hCCR10G16 cells in the presence of 10 nmol/L β-estradiol (manufactured by Sigma Ltd.) for 24 hr.
Cells expressing human CCR10 induced by the above-mentioned method were suspended in RPMI1640 medium and adjusted to cell density of 1.25×10^6 cells/mL. This mixture was dispensed to a 384 well clear bottom plate (manufactured by Corning Incorporated) at 20 μL/well, and these were incubated at 37° C. for several dozen minutes. A loading buffer prepared according to the protocol attached to FLIPR Calcium 3 assay kit (manufactured by Molecular Device) was dispensed to this plate at 20 μL/well, and the plate was incubated at 37° C. for 60 min. A 33 μmol/L DMSO solution of the test compound was diluted 37-fold with RPMI1640 medium and the resulting solution was added at 5 μL/well, and the mixture was incubated at 37° C. for 30 min. 300 nmol/L human recombinant CTACK (manufactured by R and D Systems) diluted with RPMI1640 medium containing 1 w/v % bovine serum albumin was added at 5 μL/well. Change of the intracellular calcium ion concentration for about 5 min after the addition was measured by FLIPR (manufactured by Molecular Device) or FDSS (manufactured by Hamamatsu Photonics K.K.). The difference between the maximum fluorescence intensity and the minimum fluorescence intensity for 5 min was calculated, and taken as the measurement value (maximum fluorescence intensity−minimum fluorescence intensity). […]

Structure (SMILES) | inhibition at 0.1 µM [%]
Cc1cc(F)ccc1Nc1c(C(=O)N2CCC(c3ccccc3)CC2)cnc2c(S(=O)(=O)NC(=O)C3CC3)cnn12 [a-1, N-[7-(4-Fluoro-2-methylphenylamino)-6-(4-phenylpiperidine-1-carbonyl)pyrazolo[1,5-a]pyrimidin-3-ylsulfonyl]cyclopropanecarboxamide] | 93.4
CCNS(=O)(=O)c1cnn2c(Nc3ccc(F)cc3C)c(C(=O)N3CCC(c4ccccc4)CC3)cnc12 [a-2, N-Ethyl-7-(4-fluoro-2-methylphenylamino)-6-(4-phenylpiperidine-1-carbonyl)pyrazolo[1,5-a]pyrimidine-3-sulfonamide] | > 100
CCNS(=O)(=O)c1cnn2c(Nc3ccc(F)cc3C)c(C(=O)N3CCC(c4ccc(F)cc4)CC3)cnc12 [a-3, N-Ethyl-7-(4-fluoro-2-methylphenylamino)-6-[4-(4-fluorophenyl)piperidine-1-carbonyl]pyrazolo[1,5-a]pyrimidine-3-sulfonamide] | > 100
Cc1cc(F)ccc1Nc1c(C(=O)N2CCC(c3ccc(F)cc3)CC2)cnc2c(S(=O)(=O)NCC(F)(F)F)cnn12 [a-4, 7-(4-Fluoro-2-methylphenylamino)-6-[4-(4-fluorophenyl)piperidine-1-carbonyl]-N-(2,2,2-trifluoroethyl)pyrazolo[1,5-a]pyrimidine-3-sulfonamide] | > 100
Cc1cc(F)ccc1Nc1c(C(=O)N2CCC(c3ccc(F)cc3)CC2)cnc2c(S(=O)(=O)NC3CC3)cnn12 [a-5, N-Cyclopropyl-7-(4-fluoro-2-methylphenylamino)-6-[4-(4-fluorophenyl)piperidine-1-carbonyl]pyrazolo[1,5-a]pyrimidine-3-sulfonamide] | > 100
O=C(NS(=O)(=O)c1cnn2c(Nc3ccccc3Cl)c(C(=O)N3CCC(c4ccccc4)CC3)cnc12)C1CC1 [a-6, N-[7-(2-Chlorophenylamino)-6-(4-phenylpiperidine-1-carbonyl)pyrazolo[1,5-a]pyrimidin-3-ylsulfonyl]cyclopropanecarboxamide] | 98.9
CCNC(=O)NS(=O)(=O)c1cnn2c(Nc3ccccc3Cl)c(C(=O)N3CCC(c4ccccc4)CC3)cnc12 [a-7, 7-(2-Chlorophenylamino)-N-(ethylcarbamoyl)-6-(4-phenylpiperidine-1-carbonyl)pyrazolo[1,5-a]pyrimidine-3-sulfonamide] | 92.4
COC(=O)NS(=O)(=O)c1cnn2c(Nc3ccccc3Cl)c(C(=O)N3CCC(c4ccccc4)CC3)cnc12 [a-8, Methyl 7-(2-chlorophenylamino)-6-(4-phenylpiperidine-1-carbonyl)pyrazolo[1,5-a]pyrimidin-3-ylsulfonylcarbamate] | 99.6

The next lines start with the values.

inhibition at 0.1 µM [%] | Structure (SMILES)
80.6 | O=C(NS(=O)(=O)c1cnn2c(Nc3ccccc3Cl)c(C(=O)N3CCC(c4ccc(F)cc4)CC3)cnc12)C1CC1 [a-9, N-{7-(2-Chlorophenylamino)-6-[4-(4-fluorophenyl)piperidine-1-carbonyl]pyrazolo[1,5-a]pyrimidin-3-ylsulfonyl}cyclopropanecarboxamide]
> 100 | CCNC(=O)NS(=O)(=O)c1cnn2c(Nc3ccccc3Cl)c(C(=O)N3CCC(c4ccc(F)cc4)CC3)cnc12 [a-10, 7-(2-Chlorophenylamino)-N-(ethylcarbamoyl)-6-[4-(4-fluorophenyl)piperidine-1-carbonyl]pyrazolo[1,5-a]pyrimidine-3-sulfonamide]
28.9 | COCCNS(=O)(=O)c1cnn2c(Nc3ccccc3Cl)c(C(=O)N3CCC(c4ccc(F)cc4)CC3)cnc12 [a-11, 7-(2-Chlorophenylamino)-6-[4-(4-fluorophenyl)piperidine-1-carbonyl]-N-(2-methoxyethyl)pyrazolo[1,5-a]pyrimidine-3-sulfonamide]
> 100 | Cc1ccc(Cl)c(Nc2c(C(=O)N3CCC(c4ccc(F)cc4)CC3)cnc3c(S(=O)(=O)NC(=O)C4CC4)cnn23)c1 [a-12, N-{7-(2-Chloro-5-methylphenylamino)-6-[4-(4-fluorophenyl)piperidine-1-carbonyl]pyrazolo[1,5-a]pyrimidin-3-ylsulfonyl}cyclopropanecarboxamide]
> 100 | CCC(=O)NS(=O)(=O)c1cnn2c(Nc3cc(C)ccc3Cl)c(C(=O)N3CCC(c4ccc(F)cc4)CC3)cnc12 [a-13, N-{7-(2-Chloro-5-methylphenylamino)-6-[4-(4-fluorophenyl)piperidine-1-carbonyl]pyrazolo[1,5-a]pyrimidin-3-ylsulfonyl}ethanecarboxamide]
> 100 | CCNC(=O)NS(=O)(=O)c1cnn2c(Nc3cc(C)ccc3Cl)c(C(=O)N3CCC(c4ccc(F)cc4)CC3)cnc12 [a-14, 7-(2-Chloro-5-methylphenylamino)-N-(ethylcarbamoyl)-6-[4-(4-fluorophenyl)piperidine-1-carbonyl]pyrazolo[1,5-a]pyrimidine-3-sulfonamide]
87.8 | CCNS(=O)(=O)c1cnn2c(Nc3cc(C)ccc3Cl)c(C(=O)N3CCC(c4ccc(F)cc4)CC3)cnc12 [a-15, N-Ethyl-7-(2-chloro-5-methylphenylamino)-6-[4-(4-fluorophenyl)piperidine-1-carbonyl]pyrazolo[1,5-a]pyrimidine-3-sulfonamide]
> 100 | CCNS(=O)(=O)c1cnn2c(Nc3ccc(Cl)cc3C)c(C(=O)N3CCC(c4ccc(F)cc4)CC3)cnc12 [a-16, N-Ethyl-7-(4-chloro-2-methylphenylamino)-6-[4-(4-fluorophenyl)piperidine-1-carbonyl]pyrazolo[1,5-a]pyrimidine-3-sulfonamide]
> 100 | CC(=O)NS(=O)(=O)c1cnn2c(Nc3ccc(F)cc3C)c(C(=O)N3CCC(c4ccccc4)CC3)cnc12 [a-17, N-[7-(4-Fluoro-2-methylphenylamino)-6-(4-phenylpiperidine-1-carbonyl)pyrazolo[1,5-a]pyrimidin-3-ylsulfonyl]acetamide]
98.3 | CCC(=O)NS(=O)(=O)c1cnn2c(Nc3ccc(C)cc3Cl)c(C(=O)N3CCC(c4ccc(F)cc4)CC3)cnc12 [a-18, N-{7-(2-Chloro-4-methylphenylamino)-6-[4-(4-fluorophenyl)piperidine-1-carbonyl]pyrazolo[1,5-a]pyrimidin-3-ylsulfonyl}propionamide]
97 | CCC(=O)NS(=O)(=O)c1cnn2c(Nc3ccc(Cl)cc3Cl)c(C(=O)N3CCC(c4ccc(F)cc4)CC3)cnc12 [a-19, N-{7-(2,4-Dichlorophenylamino)-6-[4-(4-fluorophenyl)piperidine-1-carbonyl]pyrazolo[1,5-a]pyrimidin-3-ylsulfonyl}propionamide]
90.7 | CCNC(=O)NS(=O)(=O)c1cnn2c(Nc3ccc(Cl)cc3Cl)c(C(=O)N3CCC(c4ccc(F)cc4)CC3)cnc12 [a-20, 7-(2,4-Dichlorophenylamino)-N-(ethylcarbamoyl)-6-[4-(4-fluorophenyl)piperidine-1-carbonyl]pyrazolo[1,5-a]pyrimidine-3-sulfonamide]
